Where a name gives a salt, the structure may show the parent alone.
How the values were obtained:
Details in all cases: exposure time: 72 h
E13 [1] = patient-derived glioblastoma stem cells of classical subtype; assay: surviving fraction (nuclei count normalised to DMSO); higher = more cells surviving (less toxic)
E21 [2] = patient-derived glioblastoma stem cells of mesenchymal subtype; assay: as above
E28 [3] = patient-derived glioblastoma stem cells of classical subtype; assay: as above
E31 [4] = patient-derived glioblastoma stem cells of proneural subtype; assay: as above
E34 [5] = patient-derived glioblastoma stem cells of proneural subtype; assay: as above
E57 [6] = patient-derived glioblastoma stem cells of mesenchymal subtype; assay: as above
FT3469 [7] = normal neural stem cell line; assay: as above
E13 [8] = assay: phenotypic distance (Euclidean, principal components) from DMSO controls (arbitrary units); higher = stronger morphological change
E21 [9] = assay: as above
E28 [10] = assay: as above
E31 [11] = assay: as above
E34 [12] = assay: as above
E57 [13] = assay: as above
FT3469 [14] = assay: as above
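Wherever phenotypic distance (Euclidean, principal components) from DMSO controls is given: cell Painting imaging in 384-well plates, CellProfiler features reduced to at least 20 principal components, Euclidean distance versus same-plate DMSO vehicle wells (0.1% v/v), median over six images per well.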
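Wherever surviving fraction (nuclei count normalised to DMSO) is given: nuclei counted by high-content imaging of Hoechst-stained cells in laminin-coated 384-well plates, relative to 0.1% DMSO vehicle wells, with staurosporine as cell-death control.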

S=c1[nH]cnc2nc[nH]c12 [Mercaptopurine]
Details	phenotypic distance	surviving fraction
E13 [1], 4.1 nM	–	0.921
E13 [1], 12.3 nM	–	0.917
E13 [1], 37 nM	–	0.937
E13 [1], 111.1 nM	–	1.04
E13 [1], 333.3 nM	–	0.899
E13 [1], 1000 nM	–	1.07
E13 [1], 3000 nM	–	0.933
E13 [8], 4.1 nM	0.545	–
E13 [8], 12.3 nM	0.627	–
E13 [8], 37 nM	0.483	–
E13 [8], 111.1 nM	0.814	–
E13 [8], 333.3 nM	0.609	–
E13 [8], 1000 nM	0.518	–
E13 [8], 3000 nM	0.658	–
E21 [2], 4.1 nM	–	1.09
E21 [2], 12.3 nM	–	1.04
E21 [2], 37 nM	–	0.958
E21 [2], 111.1 nM	–	1.01
E21 [2], 333.3 nM	–	0.977
E21 [2], 1000 nM	–	0.922
E21 [2], 3000 nM	–	1.05
E21 [9], 4.1 nM	0.78	–
E21 [9], 12.3 nM	1.43	–
E21 [9], 37 nM	0.81	–
E21 [9], 111.1 nM	0.892	–
E21 [9], 333.3 nM	0.78	–
E21 [9], 1000 nM	1.02	–
E21 [9], 3000 nM	0.813	–
E28 [3], 4.1 nM	–	0.929
E28 [3], 12.3 nM	–	1.02
E28 [3], 37 nM	–	0.893
E28 [3], 111.1 nM	–	1.13
E28 [3], 333.3 nM	–	0.931
E28 [3], 1000 nM	–	0.942
E28 [3], 3000 nM	–	0.996
E28 [10], 4.1 nM	0.534	–
E28 [10], 12.3 nM	1.01	–
E28 [10], 37 nM	0.638	–
E28 [10], 111.1 nM	0.681	–
E28 [10], 333.3 nM	0.395	–
E28 [10], 1000 nM	0.531	–
E28 [10], 3000 nM	0.838	–
E31 [4], 4.1 nM	–	1.1
E31 [4], 12.3 nM	–	1.04
E31 [4], 37 nM	–	0.994
E31 [4], 111.1 nM	–	1.08
E31 [4], 333.3 nM	–	1
E31 [4], 1000 nM	–	1.16
E31 [4], 3000 nM	–	0.862
E31 [11], 4.1 nM	0.771	–
E31 [11], 12.3 nM	0.551	–
E31 [11], 37 nM	0.636	–
E31 [11], 111.1 nM	0.699	–
E31 [11], 333.3 nM	0.484	–
E31 [11], 1000 nM	0.59	–
E31 [11], 3000 nM	0.762	–
E34 [5], 4.1 nM	–	1.04
E34 [5], 12.3 nM	–	1.18
E34 [5], 37 nM	–	1.17
E34 [5], 111.1 nM	–	1.09
E34 [5], 333.3 nM	–	0.961
E34 [5], 1000 nM	–	1.18
E34 [5], 3000 nM	–	0.823
E34 [12], 4.1 nM	0.504	–
E34 [12], 12.3 nM	0.959	–
E34 [12], 37 nM	0.783	–
E34 [12], 111.1 nM	0.796	–
E34 [12], 333.3 nM	0.438	–
E34 [12], 1000 nM	0.992	–
E34 [12], 3000 nM	0.809	–
E57 [6], 4.1 nM	–	1.14
E57 [6], 12.3 nM	–	1.06
E57 [6], 37 nM	–	1.02
E57 [6], 111.1 nM	–	1.03
E57 [6], 333.3 nM	–	1.06
E57 [6], 1000 nM	–	1.11
E57 [6], 3000 nM	–	1.1
E57 [13], 4.1 nM	0.611	–
E57 [13], 12.3 nM	0.822	–
E57 [13], 37 nM	1.19	–
E57 [13], 111.1 nM	0.97	–
E57 [13], 333.3 nM	0.524	–
E57 [13], 1000 nM	0.658	–
E57 [13], 3000 nM	0.893	–
FT3469 [7], 4.1 nM	–	1.13
FT3469 [7], 12.3 nM	–	1.18
FT3469 [7], 37 nM	–	1.05
FT3469 [7], 111.1 nM	–	1.24
FT3469 [7], 333.3 nM	–	1.1
FT3469 [7], 1000 nM	–	1.09
FT3469 [7], 3000 nM	–	1.18
FT3469 [14], 4.1 nM	0.501	–
FT3469 [14], 12.3 nM	0.977	–
FT3469 [14], 37 nM	0.81	–
FT3469 [14], 111.1 nM	1.22	–
FT3469 [14], 333.3 nM	0.759	–
FT3469 [14], 1000 nM	0.781	–
FT3469 [14], 3000 nM	0.82	–

COc1cccc2c1C(=O)c1c(O)c3c(c(O)c1C2=O)C[C@@](O)(C(=O)CO)C[C@@H]3O[C@H]1C[C@H](N)[C@H](O)[C@H](C)O1 [Doxorubicin hydrochloride]
Details	phenotypic distance	surviving fraction
E13 [1], 4.1 nM	–	0.639
E13 [1], 12.3 nM	–	0.527
E13 [1], 37 nM	–	0.409
E13 [1], 111.1 nM	–	0.265
E13 [1], 333.3 nM	–	0.188
E13 [1], 1000 nM	–	0.0799
E13 [1], 3000 nM	–	0.0133
E13 [8], 4.1 nM	2.25	–
E13 [8], 12.3 nM	3.82	–
E13 [8], 37 nM	5.4	–
E13 [8], 111.1 nM	6.04	–
E13 [8], 333.3 nM	6.31	–
E13 [8], 1000 nM	6.48	–
E13 [8], 3000 nM	6.01	–
E21 [2], 4.1 nM	–	0.799
E21 [2], 12.3 nM	–	0.544
E21 [2], 37 nM	–	0.428
E21 [2], 111.1 nM	–	0.237
E21 [2], 333.3 nM	–	0.17
E21 [2], 1000 nM	–	0.0999
E21 [2], 3000 nM	–	0.0192
E21 [9], 4.1 nM	1.5	–
E21 [9], 12.3 nM	4.4	–
E21 [9], 37 nM	6.35	–
E21 [9], 111.1 nM	5.11	–
E21 [9], 333.3 nM	5.4	–
E21 [9], 1000 nM	5.92	–
E21 [9], 3000 nM	6.77	–
E28 [3], 4.1 nM	–	0.535
E28 [3], 12.3 nM	–	0.403
E28 [3], 37 nM	–	0.341
E28 [3], 111.1 nM	–	0.163
E28 [3], 333.3 nM	–	0.174
E28 [3], 1000 nM	–	0.35
E28 [3], 3000 nM	–	0.0586
E28 [10], 4.1 nM	2.14	–
E28 [10], 12.3 nM	2.39	–
E28 [10], 37 nM	2.6	–
E28 [10], 111.1 nM	3.51	–
E28 [10], 333.3 nM	3.16	–
E28 [10], 1000 nM	3.08	–
E28 [10], 3000 nM	5.26	–
E31 [4], 4.1 nM	–	0.425
E31 [4], 12.3 nM	–	0.381
E31 [4], 37 nM	–	0.269
E31 [4], 111.1 nM	–	0.186
E31 [4], 333.3 nM	–	0.105
E31 [4], 1000 nM	–	0.0519
E31 [4], 3000 nM	–	0.0645
E31 [11], 4.1 nM	2.91	–
E31 [11], 12.3 nM	2.49	–
E31 [11], 37 nM	2.07	–
E31 [11], 111.1 nM	2.28	–
E31 [11], 333.3 nM	4.77	–
E31 [11], 1000 nM	5.51	–
E31 [11], 3000 nM	5.71	–
E34 [5], 4.1 nM	–	0.738
E34 [5], 12.3 nM	–	0.599
E34 [5], 37 nM	–	0.502
E34 [5], 111.1 nM	–	0.539
E34 [5], 333.3 nM	–	0.502
E34 [5], 1000 nM	–	0.346
E34 [5], 3000 nM	–	0.123
E34 [12], 4.1 nM	0.849	–
E34 [12], 12.3 nM	3.53	–
E34 [12], 37 nM	4.3	–
E34 [12], 111.1 nM	3.08	–
E34 [12], 333.3 nM	2.7	–
E34 [12], 1000 nM	5.02	–
E34 [12], 3000 nM	4.21	–
E57 [6], 4.1 nM	–	0.74
E57 [6], 12.3 nM	–	0.411
E57 [6], 37 nM	–	0.229
E57 [6], 111.1 nM	–	0.172
E57 [6], 333.3 nM	–	0.164
E57 [6], 1000 nM	–	0.113
E57 [6], 3000 nM	–	0.0765
E57 [13], 4.1 nM	1.85	–
E57 [13], 12.3 nM	4.6	–
E57 [13], 37 nM	8.27	–
E57 [13], 111.1 nM	7.23	–
E57 [13], 333.3 nM	7.01	–
E57 [13], 1000 nM	7.35	–
E57 [13], 3000 nM	7.3	–
FT3469 [7], 4.1 nM	–	0.574
FT3469 [7], 12.3 nM	–	0.678
FT3469 [7], 37 nM	–	0.598
FT3469 [7], 111.1 nM	–	0.582
FT3469 [7], 333.3 nM	–	0.234
FT3469 [7], 1000 nM	–	0.149
FT3469 [7], 3000 nM	–	0.0213
FT3469 [14], 4.1 nM	1.83	–
FT3469 [14], 12.3 nM	1.46	–
FT3469 [14], 37 nM	1.66	–
FT3469 [14], 111.1 nM	1.6	–
FT3469 [14], 333.3 nM	4.2	–
FT3469 [14], 1000 nM	3	–
FT3469 [14], 3000 nM	8.29	–

Reference: the supplement of paper PMC13207355
